Entries after “also recorded” stand apart in the source; their conditions may differ.
Assays:
TH = experiment: Injection into the ventricles of WT mice, TH in striatum; format: in vivo, mouse; settings: 0.3, 3, and 30 uM injected into ventricles of WT mice; 1 and 5 days post injection
Experimental: (§1) In vivo, PEP stimulates synuclein degradation. Dosage studies of 0.3, 3, and 30 uM PEP was injected into the ventricles of WT mice.

[1] = Repeat dose tox study in mini-pigs; format: in vivo, mini-pig; settings: 5 ug/kg dose IV approximately 1x/week, intake recovered afterwards
Experimental: In a repeat dose tox study in rats—animals were given up to 10 ug/kg/day for 7 days by IV tail vein injection. […] In a repeat dose tox study in mini-pigs—animals were given up to 5 ug/kg/day IV approximately 1×/week.

[2] = In vitro blood plasma binding, human; format: in vitro ADME
Excerpt: (§2) This may complicate IV delivery.

α-synuclein = experiment: Unilateral striatal injection in wild-type C57BL/6 mice, α-synuclein in striatum (western blot, IHC); settings: 215 ng dose, 3 days post-treatment
DaN cultures = experiment: LDH on drug treatment of DaN cultures; format: cell-based, human
Excerpt: It is likely that the toxicity of PEP is more specific to highly proliferative cells whereas the Inventors' differentiated neurons are largely post mitotoic.

[3] = In vitro blood plasma binding, rabbit; format: in vitro ADME
Excerpt: as §2

synuclein = experiment: Injection into the ventricles of WT mice, synuclein in striatum; format: in vivo, mouse; settings: 0.3, 3, and 30 uM injected into ventricles of WT mice; 1 and 5 days post injection
Experimental: as §1

LC3 = LC3 level in day 30 DaNs after PEP treatment (western blot); format: cell-based, human; settings: PD cells
[4] = PK profile in mice after IV tail vein injection; format: in vivo, mouse; settings: 10 and 50 ug/kg IV tail vein
Experimental: In a study to determine PK profile of PEP in mice—10 and 50 ug/kg were administered by IV tail vein injection. […] Again potentially problematic for IV delivery.

[5] = In vitro blood plasma binding, mini pig; format: in vitro ADME
Excerpt: as §2

[6] = IV bolus dose study, respiratory effects in rat; format: in vivo; settings: doses up to 10 ug/kg
Excerpt: In multiple IV bolus dose studies, the following was observed.

cleaved caspase 3 (CC3) = experiment: Cleaved caspase 3 in mDA cultures over PEP005 time-course (western blot); format: cell-based, human; settings: PD/EOSPD cultures, PEP005 treatment
Experimental: Western blot: Cells were gently scraped off the plates, washed with PBS, centrifuged at 15000 RPM for 1 min, and dry pellets were frozen at −80° C. Samples were then thawed and lysed using 1×NETN buffer (20 mM Tris-HCl (pH 8.0), 100 mM NaCl, 0.5 mM EDTA and 0.5% NP-40) supplemented with phosphatase/protease inhibitor cocktail (MS-SAFE, Sigma-Aldrich). Lysates were sonicated in an automated cold bath sonicator for 20 mins using alternating 10 sec pulses followed by 10 sec rests. Samples were centrifuged for 20 min at 4° C. at 15000 RPM. Total soluble protein concentrations were measured using a Bradford assay (BIO-RAD). 4× Laemmli sample buffer (BIO-RAD 161-0774) was added to either 100 μg or 50 μg of total protein extracts and samples were boiled for 5 min. […] Membranes were blocked with Odyssey blocking buffer (LI-COR) and then incubated with primary antibodies for overnight at 4° C. or room temperature for 3 hours. Following incubation with dye-labeled secondary antibodies for 2 hours at room temperature, signals were visualized using an Odyssey Fc imaging system (LI-COR). […] Combined α-synuclein and p-PKCα expression plots were calculated by first normalizing bands to β-actin, then to the 02iCTR signal present in each blot. […] ROC plot and area under the curve was determined using R package ROCR to determine predicative probability percentages.

[7] = In vitro blood plasma binding, rat; format: in vitro ADME
Excerpt: as §2

Compound: C/C=C(/C)C(=O)O[C@H]1C(C)=C[C@]23C(=O)[C@@H](C=C(CO)[C@@H](O)[C@]12O)[C@H]1[C@@H](C[C@H]3C)C1(C)C [PEP005, ingenol-3-angelate]
- p-PKCα signal (western blot) (p-PKCα; control and PD cultures / all iPSC lines, 1 μM PEP005 for 3 days): completely ablate; also recorded: completely ablating; also recorded: clearly ablated
- p-PKCα expression, dose response (p-PKCα; dose response study, 172iPD mDA culture): clear dose-response relationship
- p-PKCα levels at low PEP005 doses (p-PKCα; dose response study, low doses): did not alter
- time post dose at which pPKCα levels were still depressed (p-PKCα; in vitro, single 24-hour dose): ≥ 240 hours
- time until p-PKCα is degraded in response to drug treatment (p-PKCα; time-course, control and PD cultures): ≤ 24 h
- TH in mouse striatum (TH): increase
- food intake [1]: lower food intake the following day
- plasma binding [2]: highly efficient plasma binding
- α-synuclein levels in striatum, injected (L) relative to contralateral side (R) (α-synuclein): significantly reduced; also recorded: reduces
- LDH on drug treatment (DaN cultures): nor do the Inventors see an increase
- plasma binding [3]: highly efficient plasma binding
- synuclein in mouse striatum (synuclein): Reduction
- LC3 response (LC3): neither LAMP1 nor LC3 respond
- serum concentration ([4]; 1 hour after): below detectable limits
- clearance ([4]; >blood flow through the liver): very high clearance
- plasma binding [5]: highly efficient plasma binding
- respiratory effects [6]: no biologically relevant responses
- cleaved (active) caspase 3 (CC3) (cleaved caspase 3 (CC3)): marked decrease
- cleaved (active) caspase 3 (CC3) (cleaved caspase 3 (CC3); listed as PEP): marked decrease
- plasma binding [7]: highly efficient plasma binding

Reference: US12564568B2, “PKC pathway in Parkinson's Disease” (CEDARS-SINAI MEDICAL CENTER, priority 2018, dated 2026)
